Tested on: SARS-CoV-2
Assay: microbe, parasite or virus in culture
Conditions: Severe acute respiratory syndrome coronavirus 2, Vero C1008, 48 h

| SMILES | IC50 [µM] | IC50 (read-out: pIC50 (converted)) [µM] |
| --- | --- | --- |
| CCCCC(CC)CNC(=N)NC(=N)NCCCCCCNC(=N)NC(=N)NCC(CC)CCCC (stereo not given) [ALEXIDINE] | > 20 | > 20 |
| Cc1ncc[nH]1 | > 20 | > 20 |
| CCOC(=O)C1(c2ccccc2)CCCN(C)CC1 (stereo not given) [ETHOHEPTAZINE] | > 20 | > 20 |
| Cc1nnc(C(CCN2CC3CCC2CC3)(c2ccccc2)c2ccccc2)o1 [NUFENOXOLE] | > 20 | > 20 |
| Cn1nc(CO)nc1NCCCOc1cccc(CN2CCCCC2)c1 [LAVOLTIDINE] | > 20 | > 20 |
| CC(=O)C1CCC2C3CC[C@H]4C[C@H](O)CCC4(C)C3C(=O)CC12C (stereo not given in full) | > 20 | > 20 |
| C=CCNc1nc(NCC=C)nc(N2CCC(NCC(c3ccc(F)cc3)c3ccc(F)cc3)CC2)n1 | > 20 | > 20 |
| C[C@H]1CN(C2COC2)CCN1c1ccc(Nc2cc(-c3ccnc(N4CCn5c(cc6c5CC(C)(C)C6)C4=O)c3CO)cn(C)c2=O)nc1 [FENEBRUTINIB] | > 20 | > 20 |
| O=C1c2ccccc2C(=O)C1c1ccc(Cl)cc1 [CLORINDIONE] | > 20 | > 20 |
| C[N+](C)(C)CCOP(=O)([O-])OC[C@@H](O)CO | > 20 | > 20 |
| CN(C)c1cc2c(cc1Sc1nc3c(N)nccc3n1CCNCC(C)(C)C)OCO2 [CUDC-305] | > 20 | > 20 |
| CCCOC(=O)c1ccc(O)cc1 [PROPYLPARABEN] | > 20 | > 20 |
| COc1cc(N)c(Cl)cc1C(=O)NC1CCN(Cc2ccccc2)CC1 [CLEBOPRIDE] | > 20 | > 20 |
| CC[C@H](C)[C@H]1O[C@]2(C=C[C@@H]1C)C[C@@H]1C[C@@H](C/C=C(/C)[C@@H](O[C@H]3C[C@H](OC)[C@@H](O[C@H]4C[C@H](OC)[C@@H](O)[C@H](C)O4)[C@H](C)O3)[C@@H](C)/C=C\C=C3\CO[C@@H]4[C@H](O)C(C)=C[C@@H](C(=O)O1)[C@]34O)O2 | > 20 | > 20 |
| C[C@@H]1CN(Cc2ccc(F)cc2)[C@@H](C)CN1C(=O)c1cc2c(C(=O)C(=O)N(C)C)cn(C)c2cc1Cl [TALMAPIMOD] | > 20 | > 20 |
| CC(=O)NC(CC(=O)O)C(=O)O (stereo not given) | > 20 | > 20 |
| CN(C)CC/C=C1/c2ccccc2COc2ccc(CC(=O)O)cc21 [OLOPATADINE] | > 20 | > 20 |
| O=S1(=O)c2cccc3cccc(c23)N1CCCN1CCN(c2ccc(F)cc2)CC1 [FANANSERIN] | > 20 | > 20 |
| CN1C(=O)CC(=O)N(c2ccccc2)c2cc(C(F)(F)F)ccc21 [TRIFLUBAZAM] | > 20 | > 20 |
| CC1(C)OC(=O)NC1=O [DIMETHADIONE] | > 20 | > 20 |

| SMILES | IC50 [µM] | IC50 (read-out: pIC50 (converted)) [µM] |
| --- | --- | --- |
| CC1CC[C@@]2(OC1)OC1CC3C4CC[C@H]5C[C@@H](O)CC[C@]5(C)C4C[C@@H](O)[C@]3(C)C1[C@@H]2C (stereo not given in full) | > 20 | > 20 |
| NC(=O)c1cn(Cc2c(F)cccc2F)nn1 [RUFINAMIDE] | > 20 | > 20 |
| CC(C)Cn1cnc2c(N)nc3ccccc3c21 [IMIQUIMOD] | > 20 | > 20 |
| Cn1nnnc1SCC1=C(C(=O)O)N2C(=O)[C@@H](NC(=O)[C@H](O)c3ccccc3)[C@H]2SC1 [CEFAMANDOLE] | > 20 | > 20 |
| COc1cc2c(cc1OC)C(CCc1ccc(Cl)cc1)N(C)CC2 (stereo not given) [METHOPHOLINE] | > 20 | > 20 |
| N[C@@H](CSCCCO)C(=O)O [FUDOSTEINE] | > 20 | > 20 |
| CCN1CC(CCN2CCOCC2)C(c2ccccc2)(c2ccccc2)C1=O (stereo not given) [DOXAPRAM] | > 20 | > 20 |
| CC(=O)OC1(C(C)=O)CCC2C3CC(C)C4=CCCCC4(C)C3CCC21C (stereo not given) | > 20 | > 20 |
| OC[C@H]1O[C@H](O)C[C@@H](O)[C@@H]1O | > 20 | > 20 |
| C/C=C/C[C@@H](C)C(=O)[C@H]1C(=O)N[C@@H](C(C)C)C(=O)N(C)CC(=O)N(C)[C@@H](CC(C)C)C(=O)N[C@@H](C(C)C)C(=O)N(C)[C@@H](CC(C)C)C(=O)N[C@@H](C)C(=O)N[C@H](C)C(=O)N(C)[C@@H](CC(C)C)C(=O)N(C)[C@@H](CC(C)C)C(=O)N(C)[C@@H](C(C)C)C(=O)N1C [VALSPODAR] | > 20 | > 20 |
| CC(=O)OCC(=O)C1CCC2C3CC=C4CC(O)CCC4(C)C3CCC12C (stereo not given) | > 20 | > 20 |
| O=[N+]([O-])/C(Br)=C\c1ccc(Br)o1 | > 20 | > 20 |
| O=C1CN=C(c2ccccc2Cl)c2cc(Cl)ccc2N1 [DELORAZEPAM] | > 20 | > 20 |
| NCCc1c[nH]cn1 [HISTAMINE] | > 20 | > 20 |
| CC(C)c1ccc2c(c1)CCC1C(C)(CN)CCCC21C (stereo not given) | > 20 | > 20 |
| COc1cc(Cc2cnc(N)nc2N)cc(OC)c1SC [METIOPRIM] | > 20 | > 20 |
| Cc1c(Cc2ccc3ccccc3n2)c2cc(F)ccc2n1CC(=O)O [TIMAPIPRANT] | > 20 | > 20 |
| CCOC(N)=O | > 20 | > 20 |
| CCS(=O)(=O)N1CCN(c2ccc(Nc3ncc(C(N)=O)c(NC4CC4)n3)cc2)CC1 [CERDULATINIB] | > 20 | > 20 |
| O=C(O[C@@H]1Cc2c(O)cc(O)cc2O[C@H]1c1cc(O)c(O)c(O)c1)c1cc(O)c(O)c(O)c1 [GALLOCATECHIN GALLATE] | > 20 | > 20 |

| SMILES | IC50 [µM] | IC50 (read-out: pIC50 (converted)) [µM] |
| --- | --- | --- |
| NC(=O)C1c2ccccc2C=Cc2ccccc21 [CITENAMIDE] | > 20 | > 20 |
| CC[C@@H]1C2C[C@H](O)CC[C@]2(C)[C@H]2CC[C@]3(C)[C@@H]([C@H](C)CCC(=O)O)CC[C@H]3[C@@H]2[C@@H]1O (stereo not given in full) | > 20 | > 20 |
| CCCCCCCCCCCC(=O)OCC(O)CO (stereo not given) [GLYCEROL MONOLAURATE] | > 20 | > 20 |
| CC1Oc2ccccc2CC1N(C)C (stereo not given) [TREBENZOMINE] | > 20 | > 20 |
| C=CC(=O)Nc1ccc2ncnc(Nc3ccc(OCc4cccc(F)c4)c(Cl)c3)c2c1 [ALLITINIB] | > 20 | > 20 |
| O=C(/C=C/c1ccc(O)c(O)c1)O[C@@H]1C[C@](O)(C(=O)O)C[C@@H](O)[C@H]1O [CHLOROGENIC ACID] | > 20 | > 20 |
| Cc1ccc(-c2nc(CN3CCN(C(c4ccccc4)c4ccccc4)CC3)c(C)[nH]2)cc1 [LIFARIZINE] | > 20 | > 20 |
| CN1CCN(Cc2ccc(Nc3ncc(Cl)c(Nc4ccccc4S(=O)(=O)N(C)C)n3)cc2)CC1 [DUBERMATINIB] | > 20 | > 20 |
| CCCCC1C(=O)N(c2ccccc2)N(c2ccccc2)C1=O [PHENYLBUTAZONE] | > 20 | > 20 |
| COc1cc(C(=O)OC2CC3CCC(C2)N3C)ccc1O (stereo not given) [FILLALBIN] | > 20 | > 20 |
| NC(=O)NC(CCC(=O)O)C(=O)O (stereo not given) | > 20 | > 20 |
| CN(C)c1ccc(C(=C2C=CC(=[N+](C)C)C=C2)c2ccc(N(C)C)cc2)cc1 [GENTIAN VIOLET] | > 20 | > 20 |
| Cn1c(Nc2ccc(C(F)(F)F)cc2)nc2cc(Oc3ccnc(-c4ncc(C(F)(F)F)[nH]4)c3)ccc21 [RAF-265] | > 20 | > 20 |
| C[C@@H]1C\C=C/C=C\C=C/C=C\[C@H](O[C@@H]2O[C@H](C)[C@@H](O)[C@H](N)[C@@H]2O)C[C@@H]2O[C@](O)(C[C@@H](O)C[C@H]3O[C@@H]3/C=C\C(=O)O1)C[C@H](O)[C@H]2C(=O)O | > 20 | > 20 |
| CO[C@@H]1[C@@H](OC(N)=O)[C@@H](O)[C@H](Oc2ccc3c(O)c(NC(=O)c4ccc(O)c(CC=C(C)C)c4)c(=O)oc3c2C)OC1(C)C [NOVOBIOCIN] | > 20 | > 20 |
| NC(=O)c1cnc2n1CCc1ccccc1C21CCNCC1 [VAPITADINE] | > 20 | > 20 |
| C[C@H](CS)C(=O)N1CCC[C@H]1C(=O)O [CAPTOPRIL] | > 20 | > 20 |
| CC(C)N(C(=O)CN1C(=O)[C@@H](NC(=O)Nc2cccc(C(=O)O)c2)C(=O)N(c2ccccc2)c2ccccc21)c1ccccc1 | > 20 | > 20 |
| CC(=O)OC(CC(=O)O)C[N+](C)(C)C (stereo not given) | > 20 | > 20 |
| C#CCN(C)CCCOc1ccc(Cl)cc1Cl [CLORGILINE] | > 20 | > 20 |
